We go through one compound from US20240058335A1, “METHODS FOR TREATMENT OF CANCER USING ABL INHIBITORS AND DRUGS TARGETING THE MEVALONATE PATHWAY” (Duke University, priority 2021, published 2024).

One assay deals with PC9 cells. To be noted: read-out: Calculated IC50, dose-response assay.
The next assay relates to H460 cells. Put plainly: Cell viability dose-response assay (CellTiter-Glo), IC50 calculation. It is filed as cell-based, human. To be noted: H460; dose-response assay; read-out: Calculated IC50.
In another assay the test system is PC9 GR4 cells. The description is as above. It is filed as cell-based, human. The settings on record: PC9 GR4; dose-response assay; read-out: Calculated IC50.
The test system of assay [1] is PC9, PC9 GR4 and H460 cells. In words: MitoSOX staining, mitochondrial ROS by FACS. The settings on record: EGFR mutant PC9 and PC9 GR4 cells, IC50 doses, 24 hours. Format: cell-based, human. For orientation: A flow cytometer gives signals particle by particle.
Assay [2] deals with lung cancer cells (PC9, PC9 GR4, H460, H358). Put plainly: Seahorse XF Analyzer Mito Stress Test (OCR: basal respiration, maximal respiration, ATP production). It is filed as cell-based, human. The settings on record: IC50 doses, 24 hours; PC9, PC9 GR4, H460, H358. From the text:
(FIGS. 2A-2D) Seahorse XF Analyzer Mito Stress Test analysis of mitochondrial basal respiration, maximal respiration, and ATP production as measured by changes in oxygen consumption rate (OCR). […] (FIG. 2E) Mitochondrial basal respiration, maximal respiration, and ATP production as measured by Seahorse XF Analyzer's Mito Stress Test for PC9 cells harboring shRNAs against ABL1/ABL2 (shAA) and non-targeting control (shSCR). (FIGS. 2F-2G) Mitochondrial ROS (MitoROS) release as measured by FACS analysis of median fluorescent intensity (MFI) using Mitosox probe. […] Data are mean±SEM. […] Seahorse XF Analyzer Mito Stress Test analysis of mitochondrial basal respiration, maximal respiration, and ATP production as measured by changes in oxygen consumption rate (OCR) in the indicated lung cancer cells: (FIG. 8A) PC9; (FIG. 8B) PC9 GR4; (FIG. 8C) H460. […] Doses correspond to IC50 dose for each drug in the corresponding cell line. In each graph, for each of Basal Respiration, Maximal Respiration, and ATP production, data is shown from left to right for DMSO, GNF5, and Nilotinib. […] Cells were treated with IC50 doses for 24 hours (n=3). Data are mean±SEM. […] SEAHORSE MEASUREMENTS. Basal and maximal oxygen consumption rate and ATP production were measured using a Mito Stress test Kit and XF96 Extracellular Flux Analyzer (Seahorse Bioscience), according to manufacturer's instructions. Cells were plated in XF96 plates at 10,000 cells per well on Day 0. […] The plate was incubated in a non-CO2 incubator at 37° C. for 1 hr to equilibrate.

Assay [3] has as its system lung cancer cells (PC9, PC9 GR4, PC9 BrM3, H460, H358). In words: 72 hr growth inhibition / cell viability assay with drug combinations and metabolite rescue. It is filed as cell-based, human. The settings on record: PC9-BrM3, sub-therapeutic doses, 72 hrs.
In another assay the test system is H358 cells. In words: Cell viability dose-response assay (CellTiter-Glo), IC50 calculation. It is filed as cell-based, human. To be noted: H358; dose-response assay; read-out: Calculated IC50.

The term IC50 denotes the midpoint of a concentration-inhibition curve. Take `O=C(NCCO)c1cccc(-c2cc(Nc3ccc(OC(F)(F)F)cc3)ncn2)c1` [GNF5]: the IC50 in the assay on PC9 cells is 10 µM; in the assay on H460 cells it was 15 µM; with PC9 GR4 cells, 10 µM; in the assay on H358 cells it was 15 µM. For the same compound, in assay [1], the “mitochondrial reactive oxygen species (MitoROS) levels” value was “increased”. Also, the “mitochondrial function (basal respiration, maximal respiration, ATP production; OCR)” value in assay [2] is “greatly decreased”. The “cell survival in the presence of statins” value in assay [3] is “decreased cell survival”.
